Values quoted from earlier work, collected in patent US8748086B2, “Aqueous solution for the preservation of tissues and organs” (Universidad de Barcelona, priority 2008, dated 2014).

Tests used:
hearts = settings: tacrolimus in UW preservation solution; Rajesh et al. 2003
[1] = system: non-steatotic and steatotic livers; settings: prolonged ischemic periods; Ben Mosbah et al. 2006

C=CC[C@@H]1/C=C(\C)C[C@H](C)C[C@H](OC)[C@H]2O[C@@](O)(C(=O)C(=O)N3CCCC[C@H]3C(=O)O[C@H](/C(C)=C/[C@@H]3CC[C@@H](O)[C@H](OC)C3)[C@H](C)[C@@H](O)CC1=O)[C@H](C)C[C@@H]2OC [tacrolimus, Tacrolimus]
effect on preservation of hearts (hearts): failed to have any effect on preservation

COc1ccc(CN2CCNCC2)c(OC)c1OC [trimetazidine]
capacity of the preservation solution to protect livers [1]: improved the capacity of this standard preservation solution to protect
